Biological target: T1, recombinant P. falciparum DHODH (Plasmodium falciparum, UniProt Q08210)
T1 sequence (Q08210 24-569): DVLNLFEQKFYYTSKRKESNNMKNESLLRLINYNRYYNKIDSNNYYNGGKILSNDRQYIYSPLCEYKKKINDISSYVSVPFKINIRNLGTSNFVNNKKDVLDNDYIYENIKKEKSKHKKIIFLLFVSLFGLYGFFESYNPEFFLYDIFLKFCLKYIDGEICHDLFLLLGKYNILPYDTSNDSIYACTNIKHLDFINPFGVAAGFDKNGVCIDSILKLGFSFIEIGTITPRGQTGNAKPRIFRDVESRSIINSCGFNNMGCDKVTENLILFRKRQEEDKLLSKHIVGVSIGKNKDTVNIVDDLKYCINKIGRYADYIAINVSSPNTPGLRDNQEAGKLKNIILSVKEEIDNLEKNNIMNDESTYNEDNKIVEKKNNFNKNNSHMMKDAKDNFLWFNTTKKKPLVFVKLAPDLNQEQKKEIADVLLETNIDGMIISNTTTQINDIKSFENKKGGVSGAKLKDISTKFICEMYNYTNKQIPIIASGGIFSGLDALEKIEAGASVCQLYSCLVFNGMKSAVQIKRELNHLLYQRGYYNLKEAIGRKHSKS
Test: P. falciparum DHODH enzymatic assay
Details: biochemical assay

SMILES | inhibition of recombinant P. falciparum DHODH
Cc1ccc(-n2nc(OC(C)C)c(Oc3c(F)cccc3F)c2C)nn1 [22a, 3-(4-(2,6-Difluorophenoxy)-3-isopropoxy-5-methyl-1H-pyrazol-1-yl)-6-methylpyridazine] | completely devoid of effect
Cc1c(Oc2c(F)cccc2F)c(OC(C)C)nn1-c1ccc(C2CC2)nn1 [compound 10q, 3-Cyclopropyl-6-(4-(2,6-difluorophenoxy)-3-isopropoxy-5-methyl-1H-pyrazol-1-yl)pyridazine] | completely devoid of effect

Reference: PMC4516315 (Journal of Medicinal Chemistry, 2015)
